Test results taken from patent publication US20250345439A1, “CHONDROITIN SULFATE BIOGENIC POLYAMINE COMPLEX, PREPARATION METHOD THEREOF AND USE THEREOF” (priority 2022, published 2025).

System: rat rheumatoid arthritis model
[1] = venous blood, day 14 after administration

`CN(Cc1cnc2nc(N)nc(N)c2n1)c1ccc(C(=O)N[C@@H](CCC(=O)O)C(=O)O)cc1` [MTX, methotrexate] was tested, and the “degrees of swelling in the toes of rats” value (CSX of Example 2 200 mg/kg gavage daily, MTX 0.2 mg/kg gavage every other day) was “showed the desired effect of inhibiting toe swelling”, the “CT of ankle joint parts of rats” value (CSX of Example 2, MTX positive control) was “the degree of joint injury was more serious than that in the rats of the drug group (CSX)” and the “bone surface (BS) of the ankle joint” value (CT) was “decreased significantly”. For the same compound, the “absolute leukocyte count vs model group” value [1] was “no statistical difference”, the “absolute lymphocyte count vs model group” value [1] was “significantly decreased” and the “absolute neutrophil count vs model group” value [1] was “significantly decreased”.
